Data: article PMC7332124, “Design, One Pot Synthesis and Molecular Docking Studies of Substituted-1H-Pyrido[2,1-b] Quinazolines as Apoptosis-Inducing Anticancer Agents” (Asian Pacific Journal of Cancer Prevention : APJCP, 2020)
Entries after “also recorded” stand apart in the source; their conditions may differ.

Key:
DU-145 = assay: MTT cytotoxicity assay; type: cell-based, human; settings: Homo sapiens, DU-145 prostate cancer, 72 h, read-out: In vitro Inhibitory Concentration (IC50)
Experimental: (§1) Various cancer cells were used to screen anticancer activity of newly synthesized compounds. Lung (A549 and NCI-H460), colon (HCT-15 and HT-29), prostate (DU-145) cancer cells maintained in RPMI-1640 media while normal lung fibroblasts cell line (HFL-1) were maintained in F-12 k medium supplemented with 10% fetal bovine serum (FBS) with 1% antibiotic-antimycotic solution (Sigma). Cells were maintained in 5% CO2 with 98% relative humidity at 37 °C in incubator. When 80-90% of confluency is reached, they were sub-cultured using 0.25% trypsin/1 mM EDTA solution for further passage. The compounds in this series were dissolved in DMSO (1 %) to prepare the stock solution of 10 mM. Further dilutions were made accordingly with respective media to obtain the required concentrations.
(§2) MTT assay measures the reduction of MTT (3-(4,5-dimethylthiazol- 2-yl)-2,5-diphenyl tetrazolium bromide) by mitochondrial succinate dehydrogenase enzyme to insoluble formazan crystals. Since reduction of MTT occurs only in metabolically active cells, the level of activity is the measure of the viability of the cells.(Pordeli et al., 2017). Briefly, cells were plated in 96-well plates at a density of 3,000 to 6,000 cells per well in 100 µl of complete medium and allowed to grow overnight. Then the cells were treated with different concentrations of the synthesized compounds and incubated for 72 h. After the treatment, 100 µl of MTT (0.5 mg/ml) was added and incubated at 37 °C for 4 h. Then MTT reagent was aspirated and formazan crystals formed were dissolved by the addition of 200 µL of DMSO for 20 min at 37 °C. The formazan product quantity was measured by using a spectrophotometric microtiter plate reader (Spectra Max, M4 Molecular devices, USA) at 570 nm wavelength(Nekkanti et al., 2017).

HCT-15 = assay: MTT cytotoxicity assay; type: cell-based, human; settings: Homo sapiens, HCT-15 colon cancer, 72 h, read-out: In vitro Inhibitory Concentration (IC50)
Experimental: as §1, §2

[1] = system: HFL-1 normal lung fibroblasts; assay: MTT cytotoxicity assay; type: cell-based, human; settings: Homo sapiens, HFL1, 72 h, read-out: In vitro Inhibitory Concentration (IC50)
Experimental: as §1, §2

A549 cells [2] = assay: Morphological observation, phase contrast microscope; type: cell-based, human; settings: 0.5, 1, 2.5 and 5 µM, 72 h
Experimental: A549 cells were plated in 12 well culture plates with a cell density of 1.2x10^5 cells/ml and allowed to adhere for 24 h. Then the cells were incubated with 0.5, 1, 2.5 and 5 µM concentrations of compound 4q. After 72 h treatment, cells were monitored for the morphological changes and the images were captured under a phase contrast microscope (Nikon, Inc. Japan) at 200X magnification.

A549 cells [3] = assay: Acridine orange/ethidium bromide (AO/EB) staining; type: cell-based, human; settings: 0.5, 1, 2.5 and 5 µM, 72 h
Experimental: A549 cells were seeded at a concentration of 1.2x10^5 cells/ml and treated with various concentrations of compound 4q and the plates were incubated for 72 h. Then, 100 µl from fluorescent dyes comprising both Acridine Orange (Helfrich et al., 2016) and Ethidium Bromide (Vundru et al., 2013) were added into each well in equal volumes (10 µg/ml) respectively (Nekkanti et al., 2017), then the cells were Immediately visualized under fluorescence microscope with excitation (488 nm) and emission (550 nm) at 200X magnification.

A549 cells [4] = assay: DAPI nuclear staining; type: cell-based, human; settings: 0.5, 1, 2.5 and 5 µM, 72 h
Experimental: After treatment with compound 4q for 72 h, lung cancer cell line A549 were washed with PBS then fixed with 4% formaldehyde for 10 min and then permeabilized with 0.1% Tween 20 followed by staining with 1 µM DAPI. Control and treated cells were observed under fluorescence microscope with excitation at 359 nm and emission at 461 nm using DAPI filter at 200X magnification (Sgorbati et al., 1986).

A549 cells [5] = assay: Clonogenic growth inhibition assay; type: cell-based, human; settings: 1, 2.5 and 5 µM, 7 days
Experimental: The assay mainly tests ability to undergo “unlimited” division by every cell in the population and the hindrance of colony formation by compound 4i was determined in exponentially growing A549 cells by culturing 100-150 cells per well. […] Then, formed colonies were fixed with glutaraldehyde (6.0% v/v), stained with crystal violet (0.5% w/v). The treatment clearly […] the capacity to produce colonies in lung cancer cell population in a concentration dependent manner. […] The total colonies were counted by molecular imaging system Vilber Fusion Fx software and the values were represented as a percent colony forming ability.
Lung cancer cells A549 at exponentially phase were seeded into 12-well culture plates and kept overnight and treated with the compound 4q. Every 2 days the medium was replaced with the fresh medium. After 7 days of incubation, the colonies formed were fixed and stained with 1 % crystal violet in methanol for 3 h. The number of stained colonies were counted under chemdoc imaging system (Vilber Fusion Fx, France). Colony formation was calculated as a percentage to untreated control cultures (Moghaddam et al., 2009).

A549 cells [6] = assay: Cell cycle analysis (propidium iodide, flow cytometry); type: cell-based, human
Experimental: In order to reveal whether arrest of cell cycle was mechanistically responsible for sensitizing lung cancer cells towards apoptosis, the flow cytometric analysis was performed to analyse the distribution of the cell population in various cell cycle phases (Mani et al., 2017). Here, A549 cancer cells were incubated with compound 4q at various concentrations ranging from 0.5 to 5 µM for 48 h. Untreated and treated cells were harvested, washed and fixed overnight in 70% ethanol in PBS at -20 °C. Fixed cells were pelleted and stained with cell cycle analysis reagent propidium iodide (50 μg/ml) with RNase A for 20 min at 37 °C in dark and about 10,000 events were acquired and analyzed on a flow cytometer (Kumar et al., 2018a).

A549 cells [7] = assay: Annexin V-FITC/PI apoptosis assay (flow cytometry); type: cell-based, human; settings: 72 h
Excerpt: A fundamental part of apoptosis is the flipping of phosphatidyl serine (PS) from the inner surface to the outer surface of the plasma layer of the cells. PS is a component of phospholipid usually located on the cytoplasmic surface of the cell layer in viable cells. When the apoptotic condition is initiated in a cell, PS is no more restricted to the cytosolic region and will flip on the surface of the cell. Translocation of PS is considered to be a hall mark of apoptosis (Zhu et al., 2015). To experimentally address this phenomenon briefly, 1 X 10^5 cells were seeded in a 12-well plate and treated with different concentration of compound 4q and incubated for 72 h. Then untreated and treated cells were harvested and the cells were processed with annexin V-FITC and Propidium Iodide (PI) staining (Bio Legend), according to the manufacturer’s instructions. Further, early/late apoptosis and necrosis parameters were analyzed with quadrant statistics on propidium iodide-negative cells, fluorescein positive cells and propidium iodide-positive cells, respectively.

C1=CC2=NC3=C(CCCC3)C(c3cn(Cc4ccccc4)c4ccccc34)N2C=C1 (stereo not drawn) [Compound 4i, 11-(1-benzyl-1H-indol-3-yl)-2,3,4, 11-tetrahydro-1H-pyrido [2,1-b] quinazoline]
IC50 (DU-145): 9.15 ± 0.09 µM | IC50 (HCT-15): 11.3 ± 0.25 µM | IC50 [1]: 8.7 ± 0.36 µM | morphological changes (phase contrast) (A549 cells [2]): shrinkage of cells and resulted in increased number of dead cells with increase in concentration | apoptotic morphology by AO/EB staining (A549 cells [3]): induced apoptosis in A549 lung cancer cells | nuclear changes by DAPI staining (A549 cells [4]): chromatin condensation, nuclear fragmentation, and horse shoe shaped nucleus | colony formation (A549 cells [5]): Reductions in the number of colonies; also recorded: strong anti-clonogenic effect | percentage of cells in G0/G1 (A549 cells [6]; 5 µM, control 63.53%): 80.02% | cell cycle phase arrest (A549 cells [6]; 0.5 to 5 µM): arrests the A549 cancer cell lines at the G0/G1 phase; also recorded: G0/G1 arrest of the cell cycle | percentage of early apoptotic cells (EA; AV+/PI-) (A549 cells [7]; 5 µM, control 4.08 %): 26.90% | apoptosis induction (Annexin V-FITC/PI) (A549 cells [7]; 0.5 to 5 µM): significant early apoptosis | melting point: 185 to 186 °C
